From PubChem BioAssay (NCI)
“And” between values parts separate entries of the source, which are not always exact repeats. Equal values may be shown once.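 Step 1: Grow cells in 96-well plates. Step 2: Expose to compound for 48 hours at 5 concentrations. Step 3: Interpolate endpoints linearly; if unreached, use highest concentration. The concentration for 50% growth inhibition is given as GI50. TGI denotes the concentration required for complete inhibition of growth.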

Columns and labels:
Assay in all cases: DTP human tumour cell line panel, 48 h
[1] = test system: NCI-H460 lung
[2] = test system: UO-31 renal
[3] = test system: SF-539 CNS
[4] = test system: HOP-92 NSCLC
[5] = test system: SK-MEL-2 melanoma
[6] = test system: OVCAR-4 ovarian
[7] = test system: OVCAR-3 ovarian
[8] = test system: HT29 colon
[9] = test system: MDA-MB-231 breast
[10] = test system: HOP-62 NSCLC
[11] = test system: MCF7 breast
[12] = test system: T-47D breast
[13] = test system: OVCAR-8 ovarian
[14] = test system: DU-145 prostate
[15] = test system: MDA-MB-435

Structure (SMILES)	TGI [1] [µM]	TGI [2] [µM]	TGI [3] [µM]	TGI [4] [µM]	TGI [5] [µM]	TGI [6] [µM]	TGI [7]	TGI [8] [µM]	TGI [9] [µM]	TGI [10] [µM]	TGI [11] [µM]	TGI [12] [µM]	TGI [13] [µM]	TGI [14] [µM]	TGI [15] [µM]	GI50 [7]	GI50 [11]	GI50 [2] [µM]	GI50 [15] [µM]	GI50 [12] [µM]
COC(=O)C(=O)C(C(=O)C(=O)Nc1ccccc1C(C)=O)c1nc2ccc(C(=O)c3ccccc3)cc2[nH]c1=O (configuration not stated)	> 100	> 100	> 100	> 100	> 100	> 100	> 100 µM	> 100	> 100	> 100	> 100	> 100	> 100							
COc1cc(C2C3=C(COC3=O)Oc3cc4c(cc32)OCO4)ccc1OC(C)=O (configuration not stated)	> 100	> 100	0.749		> 100	> 29.8			27.1	> 100	> 100	> 100	> 56.4	> 100						
CSc1nc(NC(=O)O)c(N(C(C)=O)C(=O)O)c(=O)n1C	> 100	> 100	> 100	> 100	> 100	> 100	> 100 µM	> 100					> 100							
COc1cc(C=Nc2ccc(C(C)C)cc2)cc(OC)c1OC	> 100	> 100	> 100	> 100	> 100	> 100	> 100 µM	> 100		> 100			> 100							
COc1ccc2cc(/C=N\NC(=O)Nc3cccc4ccccc34)ccc2c1	86.4	> 100	> 100		> 100	72.1		> 100	65.7	28.7	> 100		> 100	> 100	> 100					
CC1(C)CCC[C@@]2(C)C1CC[C@H]1CC(O)C3(C)CCC12C3 (some centres not stated)	32.8	33.3	33	30.5		31.9	30.7 µM	32.1		34.5			32.6							
CCCCCCCCC/C=C1\CC(CO)(COC(=O)C2CCCCC2)OC1=O (configuration not stated)	57.1	55.8		22.2	43.1	49.3	33.4 µM	42	44.8	27.9	43.9	51.7	29.2	21.5	34.4					
COC(=O)c1ccccc1/C=C1\Cc2cc(C)cc(C)c2C1=O	> 100		> 100		> 100		> 100 µM	> 100	> 100	> 100	> 100	> 100	> 100	> 100						
COc1cc(Nc2cnc3cc(F)c(F)cc3n2)cc(OC)c1	> 100	> 100	> 100	> 100	> 100	> 100	> 100 µM	> 100		> 100	> 100	> 100	> 100	> 100	> 100					
CC(C)C1CCC/C=C/C=C/C=C/C=C/C(OC2OC(C)C(O)C(N)C2O)CC2OC(O)(CC(O)CC(O)C(O)CCC(=O)O1)CC(O)C2C(=O)O (configuration not stated)		> 52.5	> 52.5	> 52.5			> 52.5 µM	> 52.5		> 52.5			> 52.5							
CCOC(=O)c1c(-c2ccc(O)c(OC)c2)c(C#N)c(=S)n(C2OC(COC(C)=O)C(OC(C)=O)C(OC(C)=O)C2OC(C)=O)c1-c1ccccc1 (configuration not stated)	> 100	> 100		> 100		> 100	48.4 µM and > 100 µM	> 100		> 100	> 100			> 100	> 100	21.6 µM and 56.8 µM	22.4 µM and 63.3 µM			
C#C[C@]1(O)CCC2C3CCc4cc(Oc5nc(F)nc(-c6c7cc8ccccc8cc7c7n6CCS7)n5)ccc4C3CCC21C (some centres not stated)	> 100	> 100	> 100	> 100	89.7		> 100 µM	74.3		> 100			> 100							
CCN(CC)C(=S)SNCc1ccc(S(N)(=O)=O)cc1	34.4	28.8	32.1	45.7	39.5	48.1	27.5 µM	21	37.1	30.5		47.7	28.4	33.4	> 50.9					
O=c1c2cccnc2cc(-c2ccccc2)n1CCO	> 100	> 100			> 100	> 100	> 100 µM	> 100	> 100	> 100	> 100	> 100	> 100	> 100	> 100					
COC(=O)C1=Cc2cc(OC)c(O)cc2[C@@H](c2ccc(O)c(OC)c2)[C@@H]1C(=O)OC	> 100	> 100	> 100	> 100			> 100 µM	> 100	> 100	> 100	> 100	> 100	> 100	> 100	> 100					
COC(=O)C12C3C4C5C3(C#N)C1C5(C(=O)OC)C42C(=O)N(C(C)C)C(C)C (configuration not stated)	> 100	> 100	> 100	> 100	> 100	> 100	> 100 µM	> 100		> 100			> 100							
CCOC(=O)[C@@H]1ON2O[C@H](OC3CCCC3(c3ccccc3)c3ccccc3)C[C@H]3OC(=O)[C@@H]1C32 (some centres not stated)	> 100	> 100	> 100	> 100			> 100 µM	> 100	> 100	> 100	91.4	80	> 100	> 100	97.9					
COc1cc(NP(=O)(Oc2ccccc2)Oc2ccccc2)ccc1Nc1c2ccccc2nc2c1[nH]c1ccccc12	29.2	16.6		3.8	22.6	15.3	4.82 µM	2.96	28.6	2.8	25.7	12.7		1.56	21.5					

Structure (SMILES)	TGI [1] [µM]	TGI [2] [µM]	TGI [3] [µM]	TGI [4] [µM]	TGI [5] [µM]	TGI [6] [µM]	TGI [7]	TGI [8] [µM]	TGI [9] [µM]	TGI [10] [µM]	TGI [11] [µM]	TGI [12] [µM]	TGI [13] [µM]	TGI [14] [µM]	TGI [15] [µM]	GI50 [7]	GI50 [11]	GI50 [2] [µM]	GI50 [15] [µM]	GI50 [12] [µM]
CN(C(=O)Cc1ccc(Cl)c(Cl)c1)[C@@H]1CCCC[C@H]1[N+]1(C)CC=CC1		> 100		> 100	> 100	> 100	> 100 µM	> 100	> 100	> 100	> 100	> 100	> 100	> 100	> 100					
O=c1oc2ccccc2c(O)c1C(c1ccc(/C=C/c2ccccc2)cc1)c1c(O)c2ccccc2oc1=O	55.9	41.1		53.5	> 100	> 100	> 100 µM	37.2	67.9	89.3		> 100	43.8	> 100	80					
CSC1=N/C(=C\c2ccco2)C(=O)N1CN1CCCCC1		> 100		87.2	> 100		> 100 µM	> 100	> 100	> 100	> 100		> 100	> 100	> 100					
COc1ccc2c(c1)N=C1CSC(c3cccc(Br)c3)N1C2 (configuration not stated)	23.7	30.7	41.4	53.2	36.3	40.4		31.9	50.6	56.2	25.2	> 100	> 100		34.5					
CC1=CC(=O)C(=O)C2=C1OC1(C2)C(C)CCC2C3(C)CCC(O)C(C)(C)C3CCC21C (configuration not stated)	35.1	34.4	> 100	33.1		37.4	34.6 µM	40.1		35			44.7							
O=C1c2ccccc2-c2ccc(N=Nc3c(O)ccc4ccccc34)cc21		> 100		> 100	> 100	> 100	> 100 µM	> 100	> 100	> 100		> 100	> 100	> 100	> 100					
CCOP(=O)(OCC)c1ccc(=O)[nH]c1-c1cccs1	> 100	> 100	> 100	> 100	> 100	> 100	> 100 µM	> 100		> 100	> 100	> 100	> 100	> 100	> 100					
CCOC(=O)NC(=O)c1cn(CCCOC(=O)CCCCCCCCCCC(=O)OCCCn2cc(C(=O)NC(=O)OCC)c(=O)n(C)c2=O)c(=O)n(C)c1=O	> 100	> 100	> 100	> 100	> 100	> 100	> 100 µM	> 100		> 100			> 100							
CCOC(=O)C(NC(=O)CC(C)C)(Nc1ccc(S(=O)(=O)Nc2nc(C)cc(C)n2)cc1)C(F)(F)F (configuration not stated)	> 100	> 100	> 100	> 100	> 100	> 100	> 100 µM	> 100	> 100	> 100		> 100	> 100	> 100	> 100					
O=C(C1C(c2ccccc2)N1C(c1ccccc1)c1ccccc1)C1C(c2ccccc2)N1C(c1ccccc1)c1ccccc1 (configuration not stated)	29.5	38.4	43.4			> 100		30.2	45.4	> 100	22.4	> 100	> 100		> 100					
Cc1ccc(/C=C/C(=O)c2sc(-c3cccnc3)nc2C)cc1	> 100	> 100	> 100	> 100	> 100		> 100 µM	> 100		> 100			> 100							
COC(=O)C1[C@@H](C(=O)OC)C12C=Cc1ccccc1C=C2 (some centres not stated)	> 100	> 100	> 100	> 100	> 100		> 100 µM			> 100			> 100							
COc1ccc2c(c1)CCc1[nH]c3ccccc3c1CCCC2			> 10	> 10		> 10	> 10 µM	> 10	> 10	> 10	> 10	> 10	> 10	> 10	> 10					
CCCCCCCCCCCCC(O)C1CCC(C(O)CCCCCCC(O)CCCCCCCC2=CC(C)OC2=O)O1 (configuration not stated)	> 100	35		72.1	61.1	> 100	45.7 µM		> 100	> 100	> 100	> 100	> 100		> 100		23.6 µM	17	27	14.8
Cn1c(NS(=O)(=O)c2ccccc2)nc2ccccc21	> 100	> 100	> 100	> 100		> 100		> 100	> 100		> 100	> 100	> 100	> 100	> 100					
O=C(c1ccco1)N(C(=S)N1CCN(c2ccccn2)CC1)C1CCCCC1	> 100	> 100	> 100	> 100	> 100	> 100	> 100 µM	> 100		> 100			> 100							
O=C(O)c1ccc(Nc2nc3ccccc3nc2-c2cccs2)cc1	> 100	> 100	> 100	> 100		> 100	> 100 µM	> 100	> 100	> 100		> 100	> 100	> 100	> 100					
CCCN1CN(C(C(=O)N[C@@H]2C(=O)N3C(C(=O)O)=C(C)CSC23)c2ccc(O)cc2)CSC1=S (some centres not stated)	> 100	> 100	> 100	> 100	> 100	> 100	> 100 µM	> 100		> 100			> 100							
